Test results from paper PMC6009935 (Journal of Enzyme Inhibition and Medicinal Chemistry, 2017).

How the values were obtained:
[1] = tested on: thermal nociception; test: Hot plate test after i.c.v. injection; format: in vivo, mice; details: i.c.v. 1, 5 and 10 µg/mouse; 15-90 min
Description: (§1) In vivo nociception tests
(§2) Male CD-1 mice (Harlan, Italy) weighting 25-30 g were used for all experiments. Mice were housed for at least 1 week before the experimental sessions in colony cages (7 mice in each cage) under standard light (from 7.00 a.m. to 7.00 p.m.), temperature (21±1°C), relative humidity (60±10%) with food and water available ad libitum. The research protocol was approved by the Service for Biotechnology and Animal Welfare of the Istituto Superiore di Sanità and authorized by the Italian Ministry of Health, according to Legislative Decree 26/14, which implemented the European Directive 2010/63/UE on laboratory animal protection in Italy. […]
(§3) In the case of hot plate test, the thermal nociception was assessed with a commercially available apparatus consisting in a metal plate 25x25 cm (Ugo Basile, Italy) heated to a constant temperature of 55±0.1°C, on which a plastic cylinder (20 cm diameter, 18 cm high) was placed. The time of latency (s) was recorded from the moment the animal was inserted inside the cylinder up to when it licked its paws or jerked them off the hot plate; jumped off the hot plate; the latency exceeded the cut-off time of 60 s. The baseline was calculated as mean of three readings recorded before testing at intervals of 15-30 min. The time course of latency was then determined at 15, 30, 45, 60, and 90 min after treatment. […]

[2] = tested on: thermal nociception; test: Tail flick test after i.c.v. injection; format: in vivo, mice; details: i.c.v. 1, 5 and 10 µg/mouse; 15-90 min
Description: as §1, §2, §3

## Cc1c(C(=O)NC2CCN(C(=O)[C@H](Cc3ccccc3)NC(=O)CNC(=O)[C@@H](C)NC(=O)[C@@H](N)Cc3ccc(O)cc3)CC2)nn(-c2ccc(Cl)cc2Cl)c1-n1cccc1 [Compound 9]
[1]
  behavioral response to thermal nociceptive stimuli, hot plate test: no difference in treatments
[2]
  latency of the nociceptive response, tail flick test: absence of effect
